Data taken from ChEMBL document CHEMBL1201862, “PubChem BioAssay data set” (2004).
Activity calls are given as the source filed them.

Assays:
HEK293 [1] = test: NOD1 signaling inhibitors, primary screen, cell-based, luminescence, uHTS (AID 1578); type: functional; details: Homo sapiens
HEK293 [2] = test: cells; type: functional, cell-based; details: Homo sapiens
HEK293 [3] = test: cells; type: functional, cell-based; details: Homo sapiens; remark: listed apart in the source
[4] = biological target: Nucleotide-binding oligomerization domain-containing protein 2 (Homo sapiens, UniProt Q9HC29); test: NOD2 signaling inhibitors, cell-based, luminescence, uHTS, HEK293 (AID 1566); type: functional
HEK293 [5] = test: NOD2 signaling inhibitors in MDP-stimulated cells, cell-based, uHTS, luminescence (AID 2001); type: functional; details: Homo sapiens
HEK293 [6] = test: cells; type: functional, cell-based; details: Homo sapiens; remark: listed apart in the source
Tumor necrosis factor = Tumor necrosis factor (Homo sapiens, UniProt P01375); test: TNFa-triggered NF-kB activation inhibitors, SAR follow-up, cell-based, revised (AID 2337); type: functional
[7] = biological target: T1, Nucleotide-binding oligomerization domain-containing protein 1 (Homo sapiens, UniProt Q9Y239); test: NOD1 signaling inhibitors, SAR follow-up, revised (AID 2333); type: functional
T1 sequence (Q9Y239 whole entry): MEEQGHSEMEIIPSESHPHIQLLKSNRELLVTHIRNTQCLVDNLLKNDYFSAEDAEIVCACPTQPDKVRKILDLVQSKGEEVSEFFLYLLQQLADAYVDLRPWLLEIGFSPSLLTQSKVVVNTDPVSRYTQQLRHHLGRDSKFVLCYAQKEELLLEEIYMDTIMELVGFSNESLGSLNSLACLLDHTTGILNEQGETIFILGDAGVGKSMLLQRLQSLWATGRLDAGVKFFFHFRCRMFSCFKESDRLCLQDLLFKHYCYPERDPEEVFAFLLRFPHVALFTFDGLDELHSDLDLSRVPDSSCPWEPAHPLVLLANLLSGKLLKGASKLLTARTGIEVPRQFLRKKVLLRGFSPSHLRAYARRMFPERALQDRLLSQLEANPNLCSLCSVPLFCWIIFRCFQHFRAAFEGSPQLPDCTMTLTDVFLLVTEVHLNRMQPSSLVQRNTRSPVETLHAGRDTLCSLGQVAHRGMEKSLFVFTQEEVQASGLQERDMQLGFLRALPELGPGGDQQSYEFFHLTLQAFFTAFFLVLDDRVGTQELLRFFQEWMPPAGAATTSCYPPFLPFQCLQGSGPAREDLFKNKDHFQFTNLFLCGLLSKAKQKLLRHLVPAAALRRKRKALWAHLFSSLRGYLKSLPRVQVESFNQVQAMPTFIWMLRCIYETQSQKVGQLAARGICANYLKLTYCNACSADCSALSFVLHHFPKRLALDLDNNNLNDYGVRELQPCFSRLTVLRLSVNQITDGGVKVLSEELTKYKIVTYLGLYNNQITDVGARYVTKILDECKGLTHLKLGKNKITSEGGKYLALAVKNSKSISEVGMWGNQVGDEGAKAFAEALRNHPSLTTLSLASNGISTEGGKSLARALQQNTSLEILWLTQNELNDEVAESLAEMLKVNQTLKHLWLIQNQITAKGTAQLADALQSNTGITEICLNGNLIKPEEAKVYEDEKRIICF

[8] = Shn3 3'UTR reporter inhibitors, dose response, cell-based, Clone20 osteoblasts, firefly luciferase, cherry-picked (AID 624132); type: functional;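 also: firefly luciferase luminescence from reporter carrying the Shn3 3'UTR in osteoblasts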
[9] = HepG2 cell cytotoxicity, dose response, cytotoxicity control for Shn3 inhibitor project, CellTiter-Glo, cherry-picked (AID 624134); type: functional, cell-based
HEK293 [10] = test: cells; details: Homo sapiens
[11] = insulin promoter down-regulators in MIN6 cells, imaging, high-content screening, mouse beta cells (AID 1628); type: functional
[12] = cytotoxicity in MIN6 insulinoma cells, dose response, cytotoxicity control, cell-based, mouse insulinoma (AID 2122); type: functional;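 also: confirmatory high-throughput counterscreen run to flag cytotoxic compounds; mouse MIN-6 beta cells carrying an insulin promoter eGFP reporter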
HEK293 [13] = test: inhibitors of LMP1-driven NF-kB reporter, dose response, cell-based, HEK293, luciferase, cherry-pick (AID 588343); type: functional; details: Homo sapiens
BJ [14] = test: cytotoxicity toward BJ-TERT fibroblasts, dose response, cell-based, RAS-independent, luminescence (AID 1933); type: functional; details: Homo sapiens
BJ [15] = test: cells; type: functional, cell-based; details: Homo sapiens
Prothrombin = Prothrombin (Homo sapiens, UniProt P00734); test: Thrombin 1536 HTS Dose Response Confirmation. [Related pubchem assays: 1046 (Thrombin 1536 HTS; hits were confirmed in this assay)]; type: functional
BJ [16] = test: cytotoxicity toward BJ-TERT-LT-ST fibroblasts, dose response, cell-based, RAS-independent, luminescence (AID 1935); type: functional; details: Homo sapiens;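 also: BJ fibroblasts immortalized with TERT plus LT and ST oncogenes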
[17] = cytotoxicity toward DRD oncogenic fibroblasts, dose response, cell-based, non-viral oncogenic, luminescence (AID 1934); type: functional; details: Homo sapiens
BJ [18] = test: cytotoxicity toward Ras-transformed BJeLR fibroblasts, dose response, cell-based, alamar blue fluorescence, cherrypicked samples (AID 2631); type: functional; details: Homo sapiens;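 also: confirmatory dose-response assay in RAS-dependent BJ fibroblasts engineered with TERT, LT and ST, with cytotoxicity read by fluorescence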
[19] = control 3'UTR Renilla luciferase suppression, dose response, counter-screen for Shn3 inhibitor project, cell-based, Clone20-Shn3RL, cherry-picked (AID 624133); type: functional
SUMO-activating enzyme [20] = biological target: T2, SUMO-activating enzyme (Homo sapiens, UniProt Q9UBT2); test: SUMOylation inhibitor hit validation, confirmation, SUMOylation inhibitor project, biochemical, AlphaScreen (AID 2018); type: functional
Large T antigen = Large T antigen (Simian virus 40, UniProt P03070); type: functional, Betapolyomavirus macacae;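 also: Confirmatory-stage PubChem screen for compounds that inhibit SV40 T antigen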
SUMO-activating enzyme [21] = biological target: T2, SUMO-activating enzyme; test: inhibitors of in vitro SUMOylation cascade, primary screen, biochemical, HTRF, uHTS (AID 2006); type: protein-complex assay
[22] = biological target: FAD-linked sulfhydryl oxidase ALR (Homo sapiens, UniProt P55789); test: inhibitors of human ALR sulfhydryl oxidase, dose response, biochemical, H2O2 detection, luminescence, cherry-pick (AID 493248)
Leucine aminopeptidase = biological target: T3, Leucine aminopeptidase (Plasmodium falciparum 3D7, UniProt Q8IL11); test: P. falciparum M17LAP inhibitors, primary screen, biochemical, fluorogenic H-Leu-NHMec substrate, 1536-well (AID 1619); type: functional
T3 sequence (Q8IL11 whole entry): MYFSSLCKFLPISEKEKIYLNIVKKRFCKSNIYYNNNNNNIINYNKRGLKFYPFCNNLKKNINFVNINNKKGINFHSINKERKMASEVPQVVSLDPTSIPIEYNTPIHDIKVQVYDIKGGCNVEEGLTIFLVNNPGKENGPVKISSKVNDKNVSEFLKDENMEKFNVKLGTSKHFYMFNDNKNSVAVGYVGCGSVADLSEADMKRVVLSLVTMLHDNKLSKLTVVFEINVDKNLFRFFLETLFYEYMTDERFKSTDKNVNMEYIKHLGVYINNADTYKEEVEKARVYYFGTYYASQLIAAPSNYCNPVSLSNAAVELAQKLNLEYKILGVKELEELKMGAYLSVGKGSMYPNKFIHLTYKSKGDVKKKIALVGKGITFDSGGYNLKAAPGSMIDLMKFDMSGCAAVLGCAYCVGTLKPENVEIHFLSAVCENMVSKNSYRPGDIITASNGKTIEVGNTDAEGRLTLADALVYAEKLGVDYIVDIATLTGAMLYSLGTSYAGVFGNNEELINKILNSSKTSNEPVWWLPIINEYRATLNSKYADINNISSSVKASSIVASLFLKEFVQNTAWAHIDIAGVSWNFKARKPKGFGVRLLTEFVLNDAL

[23] = biological target: T4, RNA-binding protein pos-1 (Caenorhabditis elegans, UniProt G5EF15); test: inhibitors of POS-1/mex-3 RNA binding, dose response, biochemical, fluorescence polarization (AID 1964);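 also: purified POS-1 fused to maltose binding protein made in E. coli; potency of compounds blocking POS-1 binding to fluorescent RNA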
T4 sequence (G5EF15 whole entry): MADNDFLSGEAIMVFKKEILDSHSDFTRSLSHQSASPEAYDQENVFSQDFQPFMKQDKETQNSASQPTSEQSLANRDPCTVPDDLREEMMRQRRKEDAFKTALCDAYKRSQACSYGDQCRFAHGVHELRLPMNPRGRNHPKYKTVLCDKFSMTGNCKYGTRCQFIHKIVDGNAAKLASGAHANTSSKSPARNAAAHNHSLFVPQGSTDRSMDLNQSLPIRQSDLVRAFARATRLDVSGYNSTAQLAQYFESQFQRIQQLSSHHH

[24] = biological target: T5, Zinc finger protein mex-5 (Caenorhabditis elegans, UniProt Q9XUB2); test: MEX-5/TCR-2 RNA interaction inhibitors, dose response, biochemical, C. elegans, fluorescence polarization (AID 1960)
T5 sequence (Q9XUB2 whole entry): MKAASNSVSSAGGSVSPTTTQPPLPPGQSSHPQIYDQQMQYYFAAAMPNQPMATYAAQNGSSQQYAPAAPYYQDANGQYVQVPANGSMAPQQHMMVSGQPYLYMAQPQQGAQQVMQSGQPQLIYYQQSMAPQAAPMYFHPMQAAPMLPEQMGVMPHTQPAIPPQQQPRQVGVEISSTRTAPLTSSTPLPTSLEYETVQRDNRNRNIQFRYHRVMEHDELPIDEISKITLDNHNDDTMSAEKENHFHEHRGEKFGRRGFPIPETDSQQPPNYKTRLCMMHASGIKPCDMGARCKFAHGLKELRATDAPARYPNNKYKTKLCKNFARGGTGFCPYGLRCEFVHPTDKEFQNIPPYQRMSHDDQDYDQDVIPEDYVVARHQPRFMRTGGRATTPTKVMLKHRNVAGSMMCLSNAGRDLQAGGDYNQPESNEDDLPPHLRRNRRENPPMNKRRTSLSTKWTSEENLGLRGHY

[25] = biological target: DNA dC->dU-editing enzyme APOBEC-3A (Homo sapiens, UniProt P31941); test: Dose Response confirmation of small molecule APOBEC3A DNA Deaminase Inhibitors via a fluorescence-based single-stranded DNA deaminase assay. [Related pubchem assays (depositor defined):AID493011, AID493024]; type: functional
[26] = biological target: DNA dC->dU-editing enzyme APOBEC-3G (Homo sapiens, UniProt Q9HC16); type: functional;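 also: Dose-response counterscreen measuring inhibition of APOBEC3G DNA deaminase activity, run while confirming APOBEC3A inhibitors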
[27] = biological target: Glucose-6-phosphate 1-dehydrogenase (Homo sapiens, UniProt P11413); test: human G6PD enzyme inhibitors, dose response, selectivity assay for P. falciparum G6PD inhibitor project, biochemical, fluorescence (AID 504792); type: functional
[28] = biological target: T6, Heat shock factor protein 1 (Mus musculus, UniProt P38532); test: HSF1 potentiators in luciferase reporter cells, confirmation, cell-based, NIH3T3, luminescence, dose retest (AID 435004); type: functional;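 also: stress induced by proteasome inhibitor MG132 added 30 min after compound; luciferase reporter driven by HSF1 response element in NIH3T3 cells; actives raise luminescence as potentiators of the MG132 stress response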
T6 sequence (P38532 whole entry): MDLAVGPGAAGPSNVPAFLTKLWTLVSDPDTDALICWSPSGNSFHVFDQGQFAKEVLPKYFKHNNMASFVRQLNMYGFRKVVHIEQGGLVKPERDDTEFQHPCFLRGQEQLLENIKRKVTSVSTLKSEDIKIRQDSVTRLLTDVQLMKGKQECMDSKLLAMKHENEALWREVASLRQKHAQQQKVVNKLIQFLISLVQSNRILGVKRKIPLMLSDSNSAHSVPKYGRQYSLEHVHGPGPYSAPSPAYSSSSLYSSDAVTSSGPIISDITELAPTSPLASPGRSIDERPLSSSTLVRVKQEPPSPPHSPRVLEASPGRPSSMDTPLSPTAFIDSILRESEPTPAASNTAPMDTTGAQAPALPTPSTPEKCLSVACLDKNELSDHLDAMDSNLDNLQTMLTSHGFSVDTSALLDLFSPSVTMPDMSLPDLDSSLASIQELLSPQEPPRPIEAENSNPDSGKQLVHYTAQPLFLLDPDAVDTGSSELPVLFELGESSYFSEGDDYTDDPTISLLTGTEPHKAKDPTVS

T2 sequence (Q9UBE0 whole entry): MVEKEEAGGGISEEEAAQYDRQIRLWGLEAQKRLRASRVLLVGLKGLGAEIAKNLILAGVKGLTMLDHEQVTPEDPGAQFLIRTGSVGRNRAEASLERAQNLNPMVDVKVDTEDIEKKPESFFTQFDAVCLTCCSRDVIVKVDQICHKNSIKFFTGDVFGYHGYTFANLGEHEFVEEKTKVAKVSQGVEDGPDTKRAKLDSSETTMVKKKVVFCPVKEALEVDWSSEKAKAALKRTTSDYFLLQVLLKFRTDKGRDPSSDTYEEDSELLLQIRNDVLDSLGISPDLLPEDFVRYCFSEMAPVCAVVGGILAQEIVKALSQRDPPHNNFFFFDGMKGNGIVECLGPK
T2 sequence (Q9UBT2 whole entry): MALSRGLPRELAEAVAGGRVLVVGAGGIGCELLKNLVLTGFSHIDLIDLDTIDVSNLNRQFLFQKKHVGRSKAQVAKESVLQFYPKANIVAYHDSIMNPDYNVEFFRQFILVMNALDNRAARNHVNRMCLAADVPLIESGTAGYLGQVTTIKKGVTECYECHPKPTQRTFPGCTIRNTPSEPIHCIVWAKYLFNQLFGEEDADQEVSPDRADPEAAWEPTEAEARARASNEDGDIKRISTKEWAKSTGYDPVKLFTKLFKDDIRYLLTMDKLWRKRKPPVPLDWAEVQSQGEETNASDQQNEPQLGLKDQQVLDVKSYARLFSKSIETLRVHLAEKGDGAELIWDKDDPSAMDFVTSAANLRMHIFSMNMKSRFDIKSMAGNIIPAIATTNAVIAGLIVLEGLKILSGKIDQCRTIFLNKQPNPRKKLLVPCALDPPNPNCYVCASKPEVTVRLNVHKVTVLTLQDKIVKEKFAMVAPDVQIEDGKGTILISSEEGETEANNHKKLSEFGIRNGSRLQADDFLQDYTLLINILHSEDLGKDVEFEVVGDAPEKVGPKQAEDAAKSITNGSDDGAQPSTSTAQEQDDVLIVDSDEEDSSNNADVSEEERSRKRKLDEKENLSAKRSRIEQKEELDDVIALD
Chain of Tumor necrosis factor (P01375 whole entry, the tested form may be a part): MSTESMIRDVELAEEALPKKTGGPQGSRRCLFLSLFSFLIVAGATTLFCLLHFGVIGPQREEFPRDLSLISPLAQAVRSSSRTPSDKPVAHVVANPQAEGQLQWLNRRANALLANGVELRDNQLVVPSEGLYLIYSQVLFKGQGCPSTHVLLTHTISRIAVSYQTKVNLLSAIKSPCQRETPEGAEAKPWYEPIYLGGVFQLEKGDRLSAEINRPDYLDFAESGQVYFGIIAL
Chain of Nucleotide-binding oligomerization domain-containing protein 2 (Q9HC29 whole entry, the tested form may be a part): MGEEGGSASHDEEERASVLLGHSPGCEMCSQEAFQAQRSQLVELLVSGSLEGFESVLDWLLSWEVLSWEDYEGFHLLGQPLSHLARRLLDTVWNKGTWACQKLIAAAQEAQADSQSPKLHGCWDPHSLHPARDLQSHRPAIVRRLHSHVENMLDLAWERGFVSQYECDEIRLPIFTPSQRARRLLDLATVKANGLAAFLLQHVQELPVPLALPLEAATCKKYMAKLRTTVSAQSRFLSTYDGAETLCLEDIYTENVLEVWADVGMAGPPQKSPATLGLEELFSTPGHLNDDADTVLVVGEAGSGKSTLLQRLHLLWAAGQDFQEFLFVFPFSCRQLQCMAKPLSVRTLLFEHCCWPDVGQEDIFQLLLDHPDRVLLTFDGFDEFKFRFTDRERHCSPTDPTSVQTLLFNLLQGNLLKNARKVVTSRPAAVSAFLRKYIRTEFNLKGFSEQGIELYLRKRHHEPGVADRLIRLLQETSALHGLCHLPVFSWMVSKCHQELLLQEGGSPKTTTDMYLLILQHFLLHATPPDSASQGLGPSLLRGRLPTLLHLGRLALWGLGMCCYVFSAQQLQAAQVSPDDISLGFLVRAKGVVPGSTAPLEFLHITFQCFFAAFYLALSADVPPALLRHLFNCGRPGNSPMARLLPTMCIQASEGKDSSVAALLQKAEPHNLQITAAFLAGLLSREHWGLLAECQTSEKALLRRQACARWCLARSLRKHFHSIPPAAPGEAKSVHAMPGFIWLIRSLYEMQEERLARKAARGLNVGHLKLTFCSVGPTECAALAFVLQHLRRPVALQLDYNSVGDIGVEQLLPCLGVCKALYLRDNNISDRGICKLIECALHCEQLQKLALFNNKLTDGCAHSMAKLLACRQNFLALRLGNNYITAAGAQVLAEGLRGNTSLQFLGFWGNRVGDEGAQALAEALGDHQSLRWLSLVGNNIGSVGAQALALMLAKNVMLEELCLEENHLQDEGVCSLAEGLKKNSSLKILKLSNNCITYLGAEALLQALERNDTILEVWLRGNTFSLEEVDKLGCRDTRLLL
Chain of DNA dC->dU-editing enzyme APOBEC-3G (Q9HC16 whole entry): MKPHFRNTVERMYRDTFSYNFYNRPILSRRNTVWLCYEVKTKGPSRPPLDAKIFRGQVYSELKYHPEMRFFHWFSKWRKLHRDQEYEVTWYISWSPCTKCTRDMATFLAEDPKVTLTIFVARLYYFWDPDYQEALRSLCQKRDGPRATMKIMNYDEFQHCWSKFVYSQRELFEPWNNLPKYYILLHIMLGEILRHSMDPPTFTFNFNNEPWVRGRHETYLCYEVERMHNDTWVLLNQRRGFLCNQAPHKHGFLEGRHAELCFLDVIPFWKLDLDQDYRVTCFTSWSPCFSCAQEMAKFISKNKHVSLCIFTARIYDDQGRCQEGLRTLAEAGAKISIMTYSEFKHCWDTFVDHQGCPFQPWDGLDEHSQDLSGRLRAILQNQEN
Chain of Large T antigen (P03070 whole entry): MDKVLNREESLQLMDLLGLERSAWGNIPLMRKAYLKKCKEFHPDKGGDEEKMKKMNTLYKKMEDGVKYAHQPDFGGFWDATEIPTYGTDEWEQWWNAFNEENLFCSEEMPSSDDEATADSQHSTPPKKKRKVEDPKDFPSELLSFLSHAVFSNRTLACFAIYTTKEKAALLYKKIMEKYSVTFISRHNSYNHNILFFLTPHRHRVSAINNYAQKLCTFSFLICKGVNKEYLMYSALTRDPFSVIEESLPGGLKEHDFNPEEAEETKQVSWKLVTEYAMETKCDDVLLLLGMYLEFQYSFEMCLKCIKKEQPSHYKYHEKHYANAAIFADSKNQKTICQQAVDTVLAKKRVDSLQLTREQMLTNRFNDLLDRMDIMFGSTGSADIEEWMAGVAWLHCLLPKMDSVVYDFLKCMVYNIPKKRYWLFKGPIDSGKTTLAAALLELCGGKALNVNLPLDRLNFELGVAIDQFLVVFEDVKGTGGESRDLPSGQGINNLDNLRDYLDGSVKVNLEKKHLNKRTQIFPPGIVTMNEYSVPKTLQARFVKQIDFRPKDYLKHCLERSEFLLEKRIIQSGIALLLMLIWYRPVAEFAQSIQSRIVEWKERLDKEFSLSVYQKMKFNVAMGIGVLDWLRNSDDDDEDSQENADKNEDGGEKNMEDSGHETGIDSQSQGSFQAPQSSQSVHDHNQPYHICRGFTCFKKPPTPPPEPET
Chain of FAD-linked sulfhydryl oxidase ALR (P55789 whole entry): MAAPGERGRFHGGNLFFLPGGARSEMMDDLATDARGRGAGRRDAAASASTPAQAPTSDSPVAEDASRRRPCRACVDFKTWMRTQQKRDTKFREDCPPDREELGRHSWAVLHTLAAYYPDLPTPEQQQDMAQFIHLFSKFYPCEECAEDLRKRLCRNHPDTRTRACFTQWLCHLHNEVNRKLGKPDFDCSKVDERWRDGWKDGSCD
Chain of Glucose-6-phosphate 1-dehydrogenase (P11413 whole entry): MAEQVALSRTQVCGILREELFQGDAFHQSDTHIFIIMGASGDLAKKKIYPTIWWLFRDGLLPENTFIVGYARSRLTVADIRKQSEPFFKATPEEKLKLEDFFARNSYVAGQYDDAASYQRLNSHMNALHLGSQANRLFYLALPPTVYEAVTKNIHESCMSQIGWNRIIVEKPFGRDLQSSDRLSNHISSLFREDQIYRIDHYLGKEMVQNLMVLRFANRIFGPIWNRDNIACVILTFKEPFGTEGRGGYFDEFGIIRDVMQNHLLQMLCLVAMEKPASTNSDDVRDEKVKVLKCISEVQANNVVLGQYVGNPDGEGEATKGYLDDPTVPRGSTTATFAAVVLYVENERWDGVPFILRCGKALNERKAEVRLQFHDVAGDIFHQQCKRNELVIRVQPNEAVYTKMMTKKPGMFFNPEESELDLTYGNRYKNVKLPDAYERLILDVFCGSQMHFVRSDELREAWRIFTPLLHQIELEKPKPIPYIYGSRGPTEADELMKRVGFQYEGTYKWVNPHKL
Chain of DNA dC->dU-editing enzyme APOBEC-3A (P31941 whole entry): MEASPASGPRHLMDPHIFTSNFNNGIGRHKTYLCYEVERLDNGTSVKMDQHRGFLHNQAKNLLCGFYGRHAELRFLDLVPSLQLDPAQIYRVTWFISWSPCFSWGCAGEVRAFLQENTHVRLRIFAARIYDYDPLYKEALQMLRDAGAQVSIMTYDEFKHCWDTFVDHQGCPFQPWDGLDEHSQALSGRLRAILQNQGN

Cc1ccccc1C(=O)N1CCN(c2ccc(NC(=O)c3ccc4c(c3)OCCO4)cc2)CC1
EC50 (HEK293 [1]): 4.61 µM (active) | IC50 (HEK293 [2]): 4.55 µM (active) | IC50 (HEK293 [3]): 9.82 µM (active) | EC50 [4]: 10.2 µM (active) | IC50 (HEK293 [5]): 3.6 µM (active) | IC50 (HEK293 [6]): > 20 µM (inactive) | IC50 (Tumor necrosis factor): 4.73 µM (active) | IC50 [7]: 3.69 µM (active) | AC50 [8]: 2.17 µM (active) | AC50 [9]: 4.24 µM (active) | IC50 (HEK293 [10]): > 20 µM (inactive)

Cc1cccc(NC(=S)N=Nc2c(O)n(C)c3ccc(S(=O)(=O)N4CCOCC4)cc23)c1
IC50 [11]: 6.3 µM (active) | IC50 [12]: 5.04 µM (active) | AC50 (HEK293 [13]): 0.985 µM (active)

Cc1cccc(Nc2nc(N)nc(CCl)n2)c1
EC50 (HEK293 [1]): 8.71 µM (active) | EC50 (BJ [14]): 6.83 µM (inconclusive) | IC50 (HEK293 [2]): 9.2 µM (active) | EC50 (BJ [15]): 7.74 µM (active) | IC50 (HEK293 [3]): > 20 µM (inactive) | IC50 (HEK293 [5]): 10.2 µM (inactive) | IC50 (Prothrombin): > 50 µM (not active) | EC50 (BJ [16]): > 75 µM (inconclusive) | EC50 [17]: 3.92 µM (active) | IC50 (Tumor necrosis factor): > 20 µM (inactive) | IC50 [7]: 4.54 µM (active) | EC50 (BJ [18]): 24.4 µM (active) | IC50 (HEK293 [10]): > 20 µM (inactive)

O=C(CN(C(=O)c1ccc(Cl)cc1)C1CCCCC1)Nc1ccc(Cl)c([N+](=O)[O-])c1
IC50 [11]: 3.45 µM (active) | IC50 [12]: 1.85 µM (active) | AC50 [8]: 8.11 µM (active) | AC50 [9]: 52.6 µM (active) | AC50 [19]: 20.6 µM (active)

Sc1nnc(-c2ccc(Cl)cc2)n1/N=C/C=C/c1ccco1
IC50 (SUMO-activating enzyme [20]): 7.66 µM (active) | IC50 (Large T antigen): 69.2 µM (active) | IC50 (SUMO-activating enzyme [21]): 59.1 µM (active) | AC50 [22]: 1.95 µM (active)

O=C(O)c1cccc(-n2cccc2/C=C2/NC(=O)N(Cc3ccccc3F)C2=O)c1
IC50 (Leucine aminopeptidase): 53.2 µM (active) | EC50 [23]: > 300 µM (not active) | EC50 [24]: > 300 µM (not active) | IC50 [25]: 14.9 µM (active) | IC50 [26]: 42.9 µM (active)

Oc1ccc(C2C[C@H]3CC[C@@H]2C3)cc1O (stereo not given in full)
EC50 [23]: > 300 µM (not active) | EC50 [24]: 20.6 µM (inconclusive) | IC50 [27]: > 80 µM (inactive) | EC50 [28]: 20 µM (active)
